Legend:
[1] = aqueous solution; cited from earlier work
[2] = system: glioblastoma U87 MG tumors; test: Invasion of glioblastoma tumor graft into chicken embryo chorioallantoic membrane (CAM) mesenchyme; format: in vivo; details: control 90.9%
Experimental: Synergistic effect of VPA and DCA on glioblastoma tumor (GB) graft on chicken embryo chorioallantoic membrane (CAM). […] Invasion into the CAM mesenchyme was detected in 50% of cases with 10 mM NaDCA treatment of GB (A-b and B). […] The incidence of invasion into the CAM mesenchyme was 9.1% in the group treated with the combination of 4 mM VPA and 5 mM DCA (A-c and B).
A - morphological changes of the chorioallantoic membrane in the groups studied: a - tumor formed from glioblastoma U87 MG cells; GB injured the integrity of the chorionic epithelium (ChE) (indicated by arrows) and invaded the CAM mesenchyme; b - GB treated with 10 mM NaDCA; no invasion of the CAM mesenchyme was detected, ChE injury already started (location marked with an arrow); c - GB treated with a combination of 4 mM VPA and 5 mM DCA; GB formed on the CAM surface, ChE integrity damaged (location marked with an arrow), CAM thinned (scale - 200 µm). […] C - fluorescence biomicroscopy of angiogenesis on the 5th day after tumor transplantation on CAM: a - untreated GB tumors, b - GB-4 mM VPA-5 mM DCA group; VPA-DCA treated tumor fluorescence is weaker compared to the control group tumor; a and b-a short arrow indicates the blood vessels attracted by the tumor, long arrow indicates a tumor (scale - 1 mm).

CCCC(CCC)C(=O)O [valproic acid, 2-propyl-pentanoic acid]
ionization equilibrium constant Kr [1]: 2.2·10^-5

O=C([O-])C(Cl)Cl.[Na+] [NaDCA, Sodium dichloroacetate]
Invasion into the CAM mesenchyme (cases) ([2]; 10 mM NaDCA, n = 14): 50%

Magnesium dichloroacetate [MgDCA]
Invasion rate ([2]; 5 mM MgDCA, n = 7): 14.3%

From EP3895702B1, “DERIVATIVE OF VALPROIC ACID AND DICHLOROACETATE USED FOR THE TREATMENT OF CANCER” (Lietuvos sveikatos mokslu universitetas, priority 2020, dated 2021)
